Columns and labels:
[1] = target: T1, Muscarinic acetylcholine receptor M4 (Homo sapiens, UniProt P08173); format: cell membranes, CHO-K1, Membrane; settings: cho-k1; note: in other assays of this panel Not Active means under 50% inhibition at 10 µM
T1 sequence (P08173 whole entry): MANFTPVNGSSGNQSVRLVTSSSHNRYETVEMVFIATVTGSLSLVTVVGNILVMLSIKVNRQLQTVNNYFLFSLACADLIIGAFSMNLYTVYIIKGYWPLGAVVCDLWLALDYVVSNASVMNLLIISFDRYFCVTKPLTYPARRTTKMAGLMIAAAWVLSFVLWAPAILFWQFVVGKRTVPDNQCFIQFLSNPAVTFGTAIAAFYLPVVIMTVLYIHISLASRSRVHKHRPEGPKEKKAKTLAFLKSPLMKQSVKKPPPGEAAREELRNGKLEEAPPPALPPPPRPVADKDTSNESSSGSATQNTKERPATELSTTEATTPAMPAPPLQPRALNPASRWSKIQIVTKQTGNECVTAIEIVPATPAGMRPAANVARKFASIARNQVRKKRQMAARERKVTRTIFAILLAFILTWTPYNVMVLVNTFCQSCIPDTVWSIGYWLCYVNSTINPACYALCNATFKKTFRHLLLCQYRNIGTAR

[2] = target: Sigma non-opioid intracellular receptor 1 (Homo sapiens, UniProt Q99720); assay: DRUGMATRIX: Sigma1 radioligand binding (ligand: [3H] Haloperidol); format: cell membranes, Jurkat, Membrane; settings: jurkat; Not Active = under 50% inhibition at 10 µM
[3] = target: T2, Polyunsaturated fatty acid lipoxygenase ALOX15 (Oryctolagus cuniculus, UniProt P12530); assay: biochemical; format: tissue-based, Reticulocytes; settings: reticulocytes;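 note: inhibition of 15-lipoxygenase enzyme activity measured with linoleic acid as the substrate; in other assays of this panel Not Active means under 50% inhibition at 10 µM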
T2 sequence (P12530 whole entry): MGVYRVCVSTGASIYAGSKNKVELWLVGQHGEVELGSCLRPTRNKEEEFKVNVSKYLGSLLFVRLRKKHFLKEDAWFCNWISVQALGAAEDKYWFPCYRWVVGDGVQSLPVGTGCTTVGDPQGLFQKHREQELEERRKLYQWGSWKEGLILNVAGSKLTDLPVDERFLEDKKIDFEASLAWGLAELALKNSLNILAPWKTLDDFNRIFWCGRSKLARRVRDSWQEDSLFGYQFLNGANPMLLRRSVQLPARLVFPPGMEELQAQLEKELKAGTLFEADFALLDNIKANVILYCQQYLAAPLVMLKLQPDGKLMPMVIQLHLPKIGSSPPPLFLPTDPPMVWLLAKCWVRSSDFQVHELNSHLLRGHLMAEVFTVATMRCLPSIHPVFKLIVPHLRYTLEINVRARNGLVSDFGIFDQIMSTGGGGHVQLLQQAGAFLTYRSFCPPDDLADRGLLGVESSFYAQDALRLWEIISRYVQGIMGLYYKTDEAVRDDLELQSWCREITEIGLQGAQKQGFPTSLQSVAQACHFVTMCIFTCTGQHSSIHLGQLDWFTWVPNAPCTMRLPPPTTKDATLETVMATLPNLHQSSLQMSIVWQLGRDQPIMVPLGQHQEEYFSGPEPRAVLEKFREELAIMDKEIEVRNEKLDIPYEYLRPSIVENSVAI

[4] = target: T3, Type-2 angiotensin II receptor (Homo sapiens, UniProt P50052); format: cell-based; settings: cho-k1; note: in other assays of this panel Not Active means under 50% inhibition at 10 µM
T3 sequence (P50052 whole entry): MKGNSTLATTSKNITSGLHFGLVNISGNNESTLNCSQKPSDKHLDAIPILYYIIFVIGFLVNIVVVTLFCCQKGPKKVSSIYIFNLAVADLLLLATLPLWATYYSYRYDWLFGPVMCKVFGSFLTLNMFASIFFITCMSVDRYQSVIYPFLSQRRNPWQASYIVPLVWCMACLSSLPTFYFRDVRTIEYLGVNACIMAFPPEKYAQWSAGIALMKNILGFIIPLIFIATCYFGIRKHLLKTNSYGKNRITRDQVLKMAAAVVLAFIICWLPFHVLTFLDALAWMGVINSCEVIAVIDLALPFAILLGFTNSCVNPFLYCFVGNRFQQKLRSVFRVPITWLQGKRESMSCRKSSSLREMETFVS

[5] = target: Estrogen receptor beta (Homo sapiens, UniProt Q92731); settings: sf9; note: in other assays of this panel Not Active means under 50% inhibition at 10 µM
[6] = target: Melanocortin receptor 5 (Homo sapiens, UniProt P33032); format: cell membranes, HEK293, Membrane; settings: hek293; note: in other assays of this panel Not Active means under 50% inhibition at 10 µM
[7] = target: Matrix metalloproteinase-9 (Homo sapiens, UniProt P14780); assay: biochemical; format: cell-based
Matrix metalloproteinase-9, sequence (P14780 whole entry): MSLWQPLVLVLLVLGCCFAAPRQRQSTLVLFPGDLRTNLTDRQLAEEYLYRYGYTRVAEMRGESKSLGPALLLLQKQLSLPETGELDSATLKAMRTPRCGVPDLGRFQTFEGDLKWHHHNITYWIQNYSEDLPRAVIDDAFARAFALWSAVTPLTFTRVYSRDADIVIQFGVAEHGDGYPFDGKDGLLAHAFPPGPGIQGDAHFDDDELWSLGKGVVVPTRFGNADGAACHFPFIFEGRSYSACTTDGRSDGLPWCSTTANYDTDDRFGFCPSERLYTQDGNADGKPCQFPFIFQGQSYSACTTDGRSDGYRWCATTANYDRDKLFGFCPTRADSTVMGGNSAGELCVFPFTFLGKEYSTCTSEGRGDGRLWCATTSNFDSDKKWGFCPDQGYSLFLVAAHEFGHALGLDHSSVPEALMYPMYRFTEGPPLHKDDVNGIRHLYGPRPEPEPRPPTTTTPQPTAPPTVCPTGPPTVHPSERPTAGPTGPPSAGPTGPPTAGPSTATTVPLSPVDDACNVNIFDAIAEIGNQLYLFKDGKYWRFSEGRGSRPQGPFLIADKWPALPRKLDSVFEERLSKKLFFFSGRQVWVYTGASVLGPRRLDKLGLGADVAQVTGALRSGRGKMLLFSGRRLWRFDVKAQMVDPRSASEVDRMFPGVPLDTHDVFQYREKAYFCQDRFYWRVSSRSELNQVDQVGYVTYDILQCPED

Sigma non-opioid intracellular receptor 1, sequence (Q99720 whole entry): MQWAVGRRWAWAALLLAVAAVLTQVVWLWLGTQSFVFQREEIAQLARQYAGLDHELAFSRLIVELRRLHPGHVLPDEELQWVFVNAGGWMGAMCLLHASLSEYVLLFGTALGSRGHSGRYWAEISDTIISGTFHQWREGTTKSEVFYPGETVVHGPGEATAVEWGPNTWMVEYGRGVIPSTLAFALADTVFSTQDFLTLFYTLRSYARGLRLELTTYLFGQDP
Melanocortin receptor 5, sequence (P33032 whole entry): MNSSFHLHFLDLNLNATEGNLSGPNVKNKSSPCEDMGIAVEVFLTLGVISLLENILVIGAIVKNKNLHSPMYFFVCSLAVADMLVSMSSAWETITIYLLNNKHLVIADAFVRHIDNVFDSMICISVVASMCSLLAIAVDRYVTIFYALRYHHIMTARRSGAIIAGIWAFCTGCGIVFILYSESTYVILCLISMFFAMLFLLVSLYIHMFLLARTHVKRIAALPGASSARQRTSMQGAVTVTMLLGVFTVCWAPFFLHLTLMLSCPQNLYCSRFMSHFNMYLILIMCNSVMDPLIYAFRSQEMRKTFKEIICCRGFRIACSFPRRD
Estrogen receptor beta, sequence (Q92731 whole entry): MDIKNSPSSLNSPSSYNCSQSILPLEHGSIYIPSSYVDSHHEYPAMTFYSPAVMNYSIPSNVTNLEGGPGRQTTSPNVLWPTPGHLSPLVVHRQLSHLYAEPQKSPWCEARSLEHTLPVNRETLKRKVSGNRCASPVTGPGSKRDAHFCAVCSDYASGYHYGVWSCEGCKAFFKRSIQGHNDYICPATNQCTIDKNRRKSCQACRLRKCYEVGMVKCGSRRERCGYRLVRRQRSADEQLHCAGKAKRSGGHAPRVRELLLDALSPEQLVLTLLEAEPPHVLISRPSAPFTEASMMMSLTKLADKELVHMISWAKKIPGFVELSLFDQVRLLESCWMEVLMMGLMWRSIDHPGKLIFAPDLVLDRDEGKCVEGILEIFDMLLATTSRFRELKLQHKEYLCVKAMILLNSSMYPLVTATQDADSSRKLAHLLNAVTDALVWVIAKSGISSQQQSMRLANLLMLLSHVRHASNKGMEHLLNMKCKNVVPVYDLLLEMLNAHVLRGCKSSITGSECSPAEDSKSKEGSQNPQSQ

POLYVINYL ALCOHOL
Not Active: IC50 [1] | Ki [1] | IC50 [2] | Ki [2] | IC50 [3] | Ki [3] | IC50 [4] | Ki [4] | IC50 [5] | Ki [5] | IC50 [6] | Ki [6] | IC50 [7] | Ki [7]
